Drawing on BindingDB's records for doi:10.1016/0922-4106(94)90065-5 (National Children's Medical Research Center, 1994), this text covers Ki for eight compounds.

Structures are written as SMILES. Where only a bound is given, the exact number is not on record here.

For the test, the target named is T1, Alpha-1B adrenergic receptor (Mesocricetus auratus, UniProt P18841).
T1 sequence (P18841 whole entry): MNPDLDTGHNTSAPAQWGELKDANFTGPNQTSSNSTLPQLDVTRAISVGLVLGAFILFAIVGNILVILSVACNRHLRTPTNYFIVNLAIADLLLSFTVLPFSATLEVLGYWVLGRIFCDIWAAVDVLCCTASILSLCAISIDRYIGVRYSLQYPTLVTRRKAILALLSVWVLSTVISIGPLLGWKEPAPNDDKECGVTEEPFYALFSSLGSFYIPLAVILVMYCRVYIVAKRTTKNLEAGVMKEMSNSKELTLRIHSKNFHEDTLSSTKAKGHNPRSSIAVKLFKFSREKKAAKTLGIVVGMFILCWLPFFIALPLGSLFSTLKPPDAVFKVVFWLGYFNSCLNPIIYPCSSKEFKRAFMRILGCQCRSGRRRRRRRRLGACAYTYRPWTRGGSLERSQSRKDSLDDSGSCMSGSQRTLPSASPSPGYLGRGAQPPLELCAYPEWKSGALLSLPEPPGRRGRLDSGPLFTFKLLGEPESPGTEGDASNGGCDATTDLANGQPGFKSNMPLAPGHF
By Ki is commonly meant the equilibrium dissociation constant of an inhibitor or competing ligand from its target. A lower Ki goes with tighter binding. As to `NCC(O)c1ccc(O)c(O)c1` (stereo not drawn) [Noradrenaline,(+)], the Ki is 920 nM. That is a sub-micromolar value.

Regarding `COc1ccccc1N1CCN(CCCNc2c(C)c(=O)n(C)c(=O)n2C)CC1` [Urapidil-5-methyl], affinity was put at a Ki of 180 nM.

With `CNCC(O)c1ccc(O)c(O)c1` (stereo not drawn) [EPINEPHRINE], the Ki came to 9400 nM.

`COc1cccc(OC)c1OCCNCC1Oc2ccccc2OC1c1ccccc1` (stereo not drawn) [NSC_185453] returned a Ki of 5.2 nM.

Consider `Cc1ccc(N(CC2=NCCN2)c2cccc(O)c2)cc1` [SMR000059054], for which the Ki is 18 nM.

As for `COC(=O)[C@@H]1[C@H]2C[C@H]3c4[nH]c5ccccc5c4CCN3C[C@@H]2CC[C@@H]1O` [yohimbic acid methyl ester], the affinity corresponds to a Ki of 670 nM.

With `COc1ccc(OC)c(C(O)C(C)N)c1` (stereo not drawn), the Ki is > 10000 nM.

For the compound `CC(C)NCC(O)c1ccc(O)c(O)c1` (stereo not drawn) [Isoproterenol,(+)], the Ki was > 10000 nM.
